The source of these data is patent US20240383852A1, “ANTI-VIRAL COMPOUNDS” (INFEX Therapeutics Limited, priority 2021, published 2024).

Structures can show the parent of a compound that is named as a salt. Where two headings read alike, the source gives them in different places.

One data set concerns the target T1, SARS-CoV-2 PLpro (Severe acute respiratory syndrome coronavirus 2, UniProt P0DTD1).
T1 construct: containing 60 nM papain-like protease
In words: biochemical.

The subject of data set [1] is human Hep G2 cells (ATCC HB-8065). In words: Cytotoxicity in Hep G2 cells (CellTiter-Glo). Type of data set: cell-based. Background: Cellular ATP, detected with luciferase, serves as a proxy for viable cell number.
Where [2] appears, read: 60 nM papain-like protease, 50 μM Z-RLRGG-AMC, pH 7.5, 37° C., read-out: SARS-CoV-2 PLpro IC50.
[3] abbreviates: Hep G2 cells, 100 μM test article, 24-hour exposure.

At SARS-CoV-2 PLpro, `C[C@@H](NC(=O)c1cc(C2=CCN(C)CC2)ccc1Cl)c1cccc2ccccc12` [Example 144, 2-Chloro-5-(1-methyl-3,6-dihydro-2H-pyridin-4-yl)-N-[(1R)-1-(1-naphthyl)ethyl]benzamide] showed an IC50 of less than 10 µM. Also, in data set [1] (human, 24 h, 100 μM), the “% Cell Viability” value was 1.6%.

Consider `Cc1ccc(N2CCN(C)CC2)cc1C(=O)N[C@H](C)c1cccc(-c2cncnc2)c1` [Example 59, 2-Methyl-5-(4-methylpiperazin-1-yl)-N-[(1R)-1-(3-pyrimidin-5-ylphenyl)ethyl]benzamide], for which the concentration for half-maximal inhibition (IC50) at SARS-CoV-2 PLpro (setting [2]) is less than 10 µM. Besides, the “% Cell Viability” value in data set [1] (setting [3]) is given as 86.0%.

For `CNC(=O)c1cccc(-c2cccc([C@@H](C)NC(=O)c3cc(N4CCN(C)CC4)ccc3C)c2)c1` [Example 46, 2-Methyl-N-[(1R)-1-[3-[3-(methylcarbamoyl)phenyl]phenyl]ethyl]-5-(4-methylpiperazin-1-yl)benzamide], the IC50 on SARS-CoV-2 PLpro (setting [2]) was less than 2 µM. Also, in data set [1] (setting [3]), the “% Cell Viability” value was determined as 86.9%.

Consider `COc1ccc([C@@H](C)NC(=O)c2cc(N3C[C@H]4C[C@@H]3CN4C)ccc2C)cc1Br` [Example 181, N-[(1R)-1-(3-Bromo-4-methoxy-phenyl)ethyl]-2-methyl-5-[(1R,4R)-5-methyl-2,5-diazabicyclo[2.2.1]heptan-2-yl]benzamide], for which, on SARS-CoV-2 PLpro (setting [2]), the IC50 is less than 2 µM. Moreover, the “% Cell Viability” value in data set [1] (setting [3]) came out at 18.9%.

In the case of `COc1cc(-c2cn(C)nc2C)cc([C@@H](C)NC(=O)c2cc(N3CCN4CCCC4C3)ccc2C)c1` (stereo partly drawn) [Example 256, 5-(3,4,6,7,8,8a-Hexahydro-1H-pyrrolo[1,2-a]pyrazin-2-yl)-N-[(1R)-1-[3-(1,3-dimethylpyrazol-4-yl)-5-methoxy-phenyl]ethyl]-2-methyl-benzamide], the IC50 on SARS-CoV-2 PLpro (setting [2]) is less than 2 µM. Also, the “% Cell Viability” value in data set [1] (setting [3]) was determined as 70.1%.

Turning to `Cc1ccc(N2CCN(C)CC2)cc1C(=O)N[C@H](C)c1cccc(N2CCN(C)CC2)c1` [Example 103, 2-Methyl-5-(4-methylpiperazin-1-yl)-N-[(1R)-1-[3-(4-methylpiperazin-1-yl)phenyl]ethyl]benzamide], the 50% inhibitory concentration (IC50) at SARS-CoV-2 PLpro (setting [2]) is less than 5 µM. Further, the “% Cell Viability” value in data set [1] (setting [3]) is 91.4%.

In the case of `Cc1ccc(N2CCN(CCO)CC2)cc1C(=O)N[C@H](C)c1cccc(-c2cnn(C)c2)c1` [Example 112, 5-[4-(2-Hydroxyethyl)piperazin-1-yl]-2-methyl-N-[(1R)-1-[3-(1-methylpyrazol-4-yl)phenyl]ethyl]benzamide], the half-inhibitory concentration (IC50) on SARS-CoV-2 PLpro (setting [2]) was less than 2 µM. In data set [1] (setting [3]), the “% Cell Viability” value was 41.0%.

As to `COc1ccc([C@@H](C)NC(=O)c2cc(N3CCN(C)CC3)ccc2C)cc1C1CCNCC1` [Example 237, N-[(1R)-1-[4-Methoxy-3-(4-piperidyl)phenyl]ethyl]-2-methyl-5-(4-methylpiperazin-1-yl)benzamide], the IC50 at SARS-CoV-2 PLpro (setting [2]) was less than 5 µM. Also, in data set [1] (setting [3]), the “% Cell Viability” value is reported as 87.9%.

With `COc1ccc([C@@H](C)NC(=O)c2cc(N3CCN(CCO)CC3)ccc2C)cc1OC` [Example 32, N-[(1R)-1-(3,4-Dimethoxyphenyl)ethyl]-5-[4-(2-hydroxyethyl)piperazin-1-yl]-2-methyl-benzamide], the 50% inhibitory concentration (IC50) at SARS-CoV-2 PLpro (setting [2]) was less than 5 µM. Also, the “% Cell Viability” value in data set [1] (setting [3]) came to 103.5%.

`C[C@@H](NC(=O)c1cc(C2CCNC2)cn1C)c1cccc2ccccc12` (stereo partly drawn) [Example 150, 1-Methyl-N-[(1R)-1-(1-naphthyl)ethyl]-4-pyrrolidin-3-yl-pyrrole-2-carboxamide]: at SARS-CoV-2 PLpro (setting [2]), the 50% inhibitory concentration (IC50) was less than 100 µM.

For `Cc1ccc(N2CCN(C)CC2)cc1C(=O)N[C@H](C)c1cc(OCC2CC2)cc(-c2cnn(C)c2)c1` [Example 277, N-[(1R)-1-[3-(Cyclopropylmethoxy)-5-(1-methylpyrazol-4-yl)phenyl]ethyl]-2-methyl-5-(4-methylpiperazin-1-yl)benzamide], the concentration for half-maximal inhibition (IC50) at SARS-CoV-2 PLpro (setting [2]) is less than 2 µM.

On to `Cc1ccc(N2CCN(C)CC2)cc1C(=O)N[C@H](C)c1cc(OC(C)C)cc(-c2cnn(C)c2)c1` [Example 279, N-[(1R)-1-[3-Isopropoxy-5-(1-methylpyrazol-4-yl)phenyl]ethyl]-2-methyl-5-(4-methylpiperazin-1-yl)benzamide], for which the IC50 at SARS-CoV-2 PLpro (setting [2]) is less than 2 µM.

For `Cc1ccc(-c2ccncc2)cc1C(=O)N[C@H](C)c1cccc2ccccc12` [Example 139, 2-Methyl-N-[(1R)-1-(1-naphthyl)ethyl]-5-(4-pyridyl)benzamide], the half-inhibitory concentration (IC50) on SARS-CoV-2 PLpro (setting [2]) is less than 20 µM.

In the case of `C[C@@H](NC(=O)c1cc(-c2ccccc2)ccn1)c1cccc2ccccc12` [Example 3, N-[(1R)-1-(1-Naphthyl)ethyl]-4-phenyl-pyridine-2-carboxamide], the half-maximal inhibitory concentration (IC50) on SARS-CoV-2 PLpro (setting [2]) is greater than 100 µM.

As to `C[C@@H](NC(=O)c1cccc(C(=O)N2CCN(C)CC2)c1)c1cccc2ccccc12` [Example 173, 3-(4-Methylpiperazine-1-carbonyl)-N-[(1R)-1-(1-naphthyl)ethyl]benzamide], at SARS-CoV-2 PLpro (setting [2]), the concentration for half-maximal inhibition (IC50) was greater than 100 µM.

Regarding `C[C@@H](NC(=O)c1ccnc(N2CC[C@H](N)C2)n1)c1cccc2ccccc12` [Example 318, 2-[(3S)-3-Aminopyrrolidin-1-yl]-N-[(1R)-1-(1-naphthyl)ethyl]pyrimidine-4-carboxamide], the IC50 on SARS-CoV-2 PLpro (setting [2]) is less than 100 µM.

Regarding `C[C@@H](NC(=O)c1ccnc(N2CCN(C)CC2)n1)c1cccc2ccccc12` [Example 316, 2-(4-Methylpiperazin-1-yl)-N-[(1R)-1-(1-naphthyl)ethyl]pyrimidine-4-carboxamide Hydrochloride Salt], the half-maximal inhibitory concentration (IC50) at SARS-CoV-2 PLpro (setting [2]) was less than 100 µM.

On to `Cc1ccc(N2CCN(S(C)(=O)=O)CC2)cc1C(=O)N[C@H](C)c1cccc2ccccc12` [Example 110, 2-Methyl-5-(4-methylsulfonylpiperazin-1-yl)-N-[(1R)-1-(1-naphthyl)ethyl]benzamide], for which the IC50 on SARS-CoV-2 PLpro (setting [2]) is greater than 100 µM.

Take `C[C@@H](NC(=O)c1cc(N2CCNC(C(F)(F)F)C2)ccc1Cl)c1cccc2ccccc12` (stereo partly drawn) [Example 132, 2-Chloro-N-[(1R)-1-(1-naphthyl)ethyl]-5-[3-(trifluoromethyl)piperazin-1-yl]benzamide]: the half-inhibitory concentration (IC50) on SARS-CoV-2 PLpro (setting [2]) was less than 100 µM.

Regarding `Cc1ccc(N2CCN(C)CC2)cc1C(=O)N[C@H](C)c1cc(OC(F)F)cc(-c2cnn(C)c2)c1` [Example 283, N-[(1R)-1-[3-(Difluoromethoxy)-5-(1-methylpyrazol-4-yl)phenyl]ethyl]-2-methyl-5-(4-methylpiperazin-1-yl)benzamide], the IC50 at SARS-CoV-2 PLpro (setting [2]) is less than 2 µM.

Turning to `Cc1ccc(N2CCN(C)CC2)cc1C(=O)N[C@H](C)c1cccc(C(=O)NCCO)c1` [Example 313, N-[(1R)-1-[3-(2-Hydroxyethylcarbamoyl)phenyl]ethyl]-2-methyl-5-(4-methylpiperazin-1-yl)benzamide], at SARS-CoV-2 PLpro (setting [2]), the IC50 is less than 20 µM.

Take `Cc1ccc(N2CCN(C)CC2)cc1C(=O)N[C@H](C)c1cnn(C)c1` [Example 127, 2-Methyl-5-(4-methylpiperazin-1-yl)-N-[(1R)-1-(1-methylpyrazol-4-yl)ethyl]benzamide]: the half-inhibitory concentration (IC50) at SARS-CoV-2 PLpro (setting [2]) was less than 100 µM.

On to `CCOc1cc(-c2cnn(C)c2)cc([C@@H](C)NC(=O)c2cc(N3CCN(C)CC3)ccc2C)c1` [Example 278, N-[(1R)-1-[3-Ethoxy-5-(1-methylpyrazol-4-yl)phenyl]ethyl]-2-methyl-5-(4-methylpiperazin-1-yl)benzamide], for which the concentration for half-maximal inhibition (IC50) on SARS-CoV-2 PLpro (setting [2]) was less than 2 µM.

For the molecule `CC(=O)N1CCC(c2cccc(C(=O)N[C@H](C)c3cccc4ccccc34)c2)CC1` [Example 7, 3-(1-Acetyl-4-piperidyl)-N-[(1R)-1-(1-naphthyl)ethyl]benzamide], the half-inhibitory concentration (IC50) on SARS-CoV-2 PLpro (setting [2]) was greater than 100 µM.

For the molecule `Cc1ccc(-c2cccnc2)cc1C(=O)N[C@H](C)c1cccc2ccccc12` [Example 143, 2-Methyl-N-[(1R)-1-(1-naphthyl)ethyl]-5-(3-pyridyl)benzamide], at SARS-CoV-2 PLpro (setting [2]), the 50% inhibitory concentration (IC50) was less than 20 µM.

In the case of `Cc1ccc(N2CCN(C)CC2)cc1C(=O)N[C@H](C)c1cccc2c1OCCO2` [Example 183, N-[(1R)-1-(2,3-Dihydro-1,4-benzodioxin-5-yl)ethyl]-2-methyl-5-(4-methylpiperazin-1-yl)benzamide], the IC50 at SARS-CoV-2 PLpro (setting [2]) is less than 20 µM.

Consider `Cc1ccc(-c2cccc(S(=O)(=O)N3CCNCC3)c2)cc1C(=O)N[C@H](C)c1cccc2ccccc12` [Example 152, 2-Methyl-N-[(1R)-1-(1-naphthyl)ethyl]-5-(3-piperazin-1-ylsulfonylphenyl)benzamide], for which the half-maximal inhibitory concentration (IC50) at SARS-CoV-2 PLpro (setting [2]) was less than 100 µM.

With `C[C@@H](NC(=O)c1cccc(C(=O)NCCN(C)C)c1)c1cccc2ccccc12` [Example 174, N1-[2-(Dimethylamino)ethyl]-N3-[(1R)-1-(1-naphthyl)ethyl]benzene-1,3-dicarboxamide], the 50% inhibitory concentration (IC50) at SARS-CoV-2 PLpro (setting [2]) was less than 100 µM.

Turning to `Cc1ccc(N2CCN(C)CC2)cc1C(=O)N[C@H](C)c1cccc(N2CCN(C)CC2)c1` [Example 104], the “% Cell Viability” value in data set [1] (setting [3]) is recorded as 82.7%.

For the molecule `Cc1ccc(N2CCN(C)CC2)cc1C(=O)N[C@H](C)c1cccc(CCC(=O)O)c1` [Example 82, 3-[3-[(1R)-1-[[2-Methyl-5-(4-methylpiperazin-1-yl)benzoyl]amino]ethyl]phenyl] propanoic Acid], the IC50 at SARS-CoV-2 PLpro (setting [2]) was less than 100 µM.

For `Cc1ccc(N2CCN(C)CC2)cc1C(=O)N[C@H](C)c1cccc(CCC(=O)N(C)C)c1` [Example 84, N-[(1R)-1-[3-[3-(Dimethylamino)-3-oxo-propyl]phenyl]ethyl]-2-methyl-5-(4-methylpiperazin-1-yl)benzamide], the IC50 on SARS-CoV-2 PLpro (setting [2]) was less than 20 µM.

With `COc1c(Br)cccc1[C@@H](C)NC(=O)c1cc(N2CCN(C)CC2)ccc1C` [Example 194, N-[(1R)-1-(3-Bromo-2-methoxy-phenyl)ethyl]-2-methyl-5-(4-methylpiperazin-1-yl)benzamide], the IC50 on SARS-CoV-2 PLpro (setting [2]) is less than 100 µM.

As for `Cc1cnc(N2CCN(C)CC2)nc1C(=O)N[C@H](C)c1cccc2ccccc12` [Example 8, 5-Methyl-2-(4-methylpiperazin-1-yl)-N-[(1R)-1-(naphthalen-1-yl)ethyl]pyrimidine-4-carboxamide Hydrochloride Salt], the 50% inhibitory concentration (IC50) on SARS-CoV-2 PLpro (setting [2]) is less than 100 µM.

Take `Cc1ccc(N2CCN(C(=O)OC(C)(C)C)CC2)cc1C(=O)N[C@H](C)c1cccc2ccccc12` [Example 28, tert-Butyl 4-[4-methyl-3-[(1R)-1-(1-naphthyl)ethyl]carbamoyl]phenyl]piperazine-1-carboxylate]: on SARS-CoV-2 PLpro (setting [2]), the IC50 is less than 100 µM.

By IC50 is commonly meant the concentration at which inhibition is half-maximal.
